{"source": "patent US20030162834A1", "about": "“Natural physiologically active material effective on fish diseases and fish food containing the material” (priority 1998, published 2003)", "key": {"Cryptocaryon irritans": {"test_system": "Cryptocaryon irritans", "assay": "Trial 10: immersion of infected tiger puffer in seawater containing octanoic acid", "type": "in vivo", "details": "200 ppm for 2 minutes, 3 hours after return to seawater", "experimental": "300 g of tiger puffer infected with Cryptocaryon irritans was immersed in seawater containing 200 ppm of octanoic acid for 2 minutes, and then returned to seawater again. After 3 hours from return to seawater, the parasites Cryptocaryon irritans and their situations and numbers were observed."}, "Heterobothrium okamotoi": {"test_system": "Heterobothrium okamotoi", "assay": "Trial 6: vitamin C enhancement trial on tiger puffer", "type": "in vivo", "details": "5 g octanoic acid per 1 kg pellets (with or without 200 mg vitamin C per kg), oral, 15 days after first challenge", "text": "Fish tested: Tiger puffer weighing approximately 50.0 g in average.\nTrial groups: Three groups, i.e., an octanoic-acid added group in which fish were fed diets added with octanoic acid, an octanoic-acid added/vitamin-C enhanced group in which fish were fed diets added with both octanoic acid and vitamin C, and a control group in which fish were fed diets not added with octanoic acid. The feeding rate was 2% of fish weight/day for each group.\nTrial diets: The diets added with octanoic acid were prepared by spraying 5 g of octanoic acid to 1 kg of commercially available pellets for tiger puffer. The diets added with both octanoic acid and vitamin C were prepared by spraying 200 mg of vitamin C, dissolved in water, to 1 kg of the above diets added with octanoic acid. The control group fish were fed the commercially available pellets for tiger puffer.\nChallenge trial: Each 5 pieces of fish from among a shoal of fish, in which no diseases such as parasitic infections were found, were put in a 100-liter water tank, and were fed the respective trial diets. After 7 days, approximately 750 individuals of oncomiracidia of Heterobothrium okamotoi were put into each water tank to infect the fish while water flow was stopped for 1 hour. The infection procedure was repeated every other day 5 times in total under the same condition. […]"}}}
{"smiles": "CCCCCCCC(=O)O", "note": "[octanoic acid]", "values": [{"measurement": "number of parasites attaching to the body surface", "setting": "Cryptocaryon irritans; before treatment 193/2 cm^2", "value": "261 /2 cm^2"}, {"measurement": "number of parasites attaching to the gill", "setting": "Cryptocaryon irritans; before treatment 624", "value": 356, "unit": "per branchial arch"}, {"measurement": "body-surface parasites that showed movement and seemed still alive", "setting": "Cryptocaryon irritans; of 261", "value": 9}, {"measurement": "gill parasites that showed movement and seemed still alive", "setting": "Cryptocaryon irritans; of 356", "value": 193}, {"measurement": "number of parasites attaching to the gill", "setting": "Heterobothrium okamotoi", "value": "apparently fewer"}]}
